Reference: ChEMBL document CHEMBL1201862, “PubChem BioAssay data set” (2004)
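In this assay, cells in 96-well plates receive the compound at five concentrations for 48 hours. Endpoints are linearly interpolated between the surrounding concentrations. GI50 is the concentration that inhibits growth by half.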 Calls of active or inactive are those of the source. Rule as the data show it: active = GI50 up to about 1.1 µM and inactive = higher.

Key:
Assay in all cases: growth of human tumour cells (NCI), 48 h
MDA-MB-435 = test system: MDA-MB-435
EKVX = test system: EKVX
HCT-15 = test system: HCT-15
UO-31 = test system: UO-31
RPMI-8226 = test system: RPMI-8226
TK-10 = test system: TK-10
BT-549 = test system: BT-549
OVCAR-3 = test system: OVCAR-3
MDA-N = test system: MDA-N
OVCAR-5 = test system: OVCAR-5
T47D = test system: T47D
OVCAR-8 = test system: OVCAR-8
786-0 = test system: 786-0
MDA-MB-231 = test system: MDA-MB-231
SK-OV-3 = test system: SK-OV-3
ACHN = test system: ACHN
MCF7 = test system: MCF7
NCI-H460 = test system: NCI-H460
NCI/ADR-RES = test system: NCI/ADR-RES
CAKI-1 = test system: CAKI-1
OVCAR-4 = test system: OVCAR-4
NCI-H226 = test system: NCI-H226
HCC 2998 = test system: HCC 2998
SNB-19 = test system: SNB-19
SW-620 = test system: SW-620
SK-MEL-5 = test system: SK-MEL-5
U-251 = test system: U-251
KM12 = test system: KM12
MOLT-4 = test system: MOLT-4
SN12C = test system: SN12C
M14 = test system: M14
SK-MEL-28 = test system: SK-MEL-28
IGROV-1 = test system: IGROV-1
SK-MEL-2 = test system: SK-MEL-2
DU-145 = test system: DU-145
HOP-62 = test system: HOP-62
K562 = test system: K562
HCT-116 = test system: HCT-116
A549 = test system: A549
CCRF-CEM = test system: CCRF-CEM
SNB-75 = test system: SNB-75
COLO 205 = test system: COLO 205
HT-29 = test system: HT-29
RXF 393 = test system: RXF 393
UACC-257 = test system: UACC-257
SF-295 = test system: SF-295
PC-3 = test system: PC-3
UACC-62 = test system: UACC-62
NCI-H23 = test system: NCI-H23
HOP-92 = test system: HOP-92
SF-268 = test system: SF-268
SR = test system: SR
A498 = test system: A498
SF-539 = test system: SF-539
HL-60 = test system: HL-60
Malme-3M = test system: Malme-3M
LOX IMVI = test system: LOX IMVI
NCI-H522 = test system: NCI-H522
Hs-578T = test system: Hs-578T

`Cc1nc2c(cc1C(=O)NN)c(=O)n(C)c(=O)n2C` was tested, and the GI50 (MDA-MB-435) was > 100 µM (inactive), the GI50 (EKVX) was > 100 µM (inactive) and the GI50 (HCT-15) was over 100 µM. The GI50 (UO-31) was > 100 µM (inactive), the GI50 (RPMI-8226) was > 100 µM (inactive) and the GI50 (TK-10) was > 100 µM (inactive). For the same compound, the GI50 (BT-549) was > 100 µM (inactive), the GI50 (OVCAR-3) was > 100 µM (inactive) and the GI50 (MDA-N) was > 100 µM (inactive). The GI50 (OVCAR-5) was > 100 µM (inactive), the GI50 (T47D) was > 100 µM (inactive) and the GI50 (OVCAR-8) was > 100 µM (inactive). For the same compound, the GI50 (786-0) was > 100 µM (inactive), the GI50 (MDA-MB-231) was > 100 µM (inactive) and the GI50 (SK-OV-3) was > 100 µM (inactive). The GI50 (ACHN) was > 100 µM (inactive), the GI50 (MCF7) was > 100 µM (inactive) and the GI50 (NCI-H460) was > 100 µM (inactive). The GI50 (NCI/ADR-RES) was > 100 µM (inactive), the GI50 (CAKI-1) was > 100 µM (inactive) and the GI50 (OVCAR-4) was > 100 µM (inactive). For the same compound, the GI50 (NCI-H226) was > 100 µM (inactive), the GI50 (HCC 2998) was > 100 µM (inactive) and the GI50 (SNB-19) was > 100 µM (inactive). The GI50 (SW-620) was > 100 µM (inactive), the GI50 (SK-MEL-5) was > 100 µM (inactive) and the GI50 (U-251) was > 100 µM (inactive). The GI50 (KM12) was > 100 µM (inactive), the GI50 (MOLT-4) was > 100 µM (inactive) and the GI50 (SN12C) was > 100 µM (inactive). The GI50 (M14) was > 100 µM (inactive), the GI50 (SK-MEL-28) was > 100 µM (inactive) and the GI50 (IGROV-1) was > 100 µM (inactive). For the same compound, the GI50 (SK-MEL-2) was > 100 µM (inactive), the GI50 (DU-145) was > 100 µM (inactive) and the GI50 (HOP-62) was > 100 µM (inactive). The GI50 (K562) was > 100 µM (inactive), the GI50 (HCT-116) was > 100 µM (inactive) and the GI50 (A549) was > 100 µM (inactive). For the same compound, the GI50 (CCRF-CEM) was > 100 µM (inactive), the GI50 (SNB-75) was > 100 µM (inactive) and the GI50 (COLO 205) was > 100 µM (inactive). The GI50 (HT-29) was > 100 µM (inactive), the GI50 (RXF 393) was > 100 µM (inactive) and the GI50 (UACC-257) was > 100 µM (inactive). The GI50 (SF-295) was > 100 µM (inactive), the GI50 (PC-3) was > 100 µM (inactive) and the GI50 (UACC-62) was > 100 µM (inactive). For the same compound, the GI50 (NCI-H23) was > 100 µM (inactive).

For `Cc1ccc(C2=C(C#N)C(N)OC3=C2COc2ccccc23)cc1` (stereo unspecified), the GI50 (MDA-MB-435) was 51.9 µM (inactive), the GI50 (EKVX) was 7.19 µM (inactive) and the GI50 (HCT-15) was over 100 µM. The GI50 (UO-31) was 14.3 µM (inactive), the GI50 (RPMI-8226) was > 100 µM (inactive) and the GI50 (TK-10) was 17.2 µM (inactive). The GI50 (HOP-92) was 31.8 µM (inactive), the GI50 (BT-549) was > 100 µM (inactive) and the GI50 (OVCAR-3) was 17 µM (inactive). For the same compound, the GI50 (SF-268) was 27 µM (inactive), the GI50 (MDA-N) was 44.2 µM (inactive) and the GI50 (OVCAR-5) was 2.4 µM (inactive). For the same compound, the GI50 (MDA-MB-231) was 23.7 µM (inactive), the GI50 (SK-OV-3) was 25.9 µM (inactive) and the GI50 (ACHN) was 35.2 µM (inactive). The GI50 (MCF7) was > 100 µM (inactive), the GI50 (NCI-H460) was 43.5 µM (inactive) and the GI50 (NCI/ADR-RES) was 30.3 µM (inactive). For the same compound, the GI50 (SR) was 32.6 µM (inactive), the GI50 (OVCAR-4) was 13.5 µM (inactive) and the GI50 (NCI-H226) was > 100 µM (inactive). The GI50 (HCC 2998) was 41.6 µM (inactive), the GI50 (A498) was 24.1 µM (inactive) and the GI50 (SNB-19) was 19 µM (inactive). For the same compound, the GI50 (SW-620) was > 100 µM (inactive), the GI50 (SF-539) was 39.6 µM (inactive) and the GI50 (SK-MEL-5) was 63 µM (inactive). The GI50 (U-251) was 19.5 µM (inactive), the GI50 (KM12) was > 100 µM (inactive) and the GI50 (MOLT-4) was 16.6 µM (inactive). For the same compound, the GI50 (SN12C) was 18.6 µM (inactive), the GI50 (M14) was > 100 µM (inactive) and the GI50 (SK-MEL-28) was 31.6 µM (inactive). For the same compound, the GI50 (IGROV-1) was 57.8 µM (inactive), the GI50 (SK-MEL-2) was 26.6 µM (inactive) and the GI50 (DU-145) was 17.6 µM (inactive). For the same compound, the GI50 (HOP-62) was 15.6 µM (inactive), the GI50 (K562) was 80.7 µM (inactive) and the GI50 (HCT-116) was 31.9 µM (inactive). For the same compound, the GI50 (A549) was 31.4 µM (inactive), the GI50 (CCRF-CEM) was 22.9 µM (inactive) and the GI50 (COLO 205) was > 100 µM (inactive). The GI50 (HT-29) was 4.85 µM (inactive), the GI50 (HL-60) was > 100 µM (inactive) and the GI50 (UACC-257) was > 100 µM (inactive). For the same compound, the GI50 (Malme-3M) was 22.8 µM (inactive), the GI50 (PC-3) was 18.9 µM (inactive) and the GI50 (UACC-62) was 78 µM (inactive). The GI50 (NCI-H23) was 43.5 µM (inactive) and the GI50 (LOX IMVI) was 88.3 µM (inactive).

`c1ccc2c(c1)N=C(NC1CCCCC1)CCN2` was tested, and the GI50 (MDA-MB-435) was > 100 µM (inactive), the GI50 (EKVX) was > 100 µM (inactive) and the GI50 (HCT-15) was over 100 µM. The GI50 (UO-31) was > 100 µM (inactive), the GI50 (RPMI-8226) was > 100 µM (inactive) and the GI50 (TK-10) was > 100 µM (inactive). The GI50 (BT-549) was > 100 µM (inactive), the GI50 (OVCAR-3) was > 100 µM (inactive) and the GI50 (SF-268) was > 100 µM (inactive). The GI50 (MDA-N) was > 100 µM (inactive), the GI50 (NCI-H522) was > 100 µM (inactive) and the GI50 (OVCAR-5) was > 100 µM (inactive). For the same compound, the GI50 (OVCAR-8) was > 100 µM (inactive), the GI50 (786-0) was > 100 µM (inactive) and the GI50 (MDA-MB-231) was > 100 µM (inactive). The GI50 (SK-OV-3) was > 100 µM (inactive), the GI50 (ACHN) was > 100 µM (inactive) and the GI50 (NCI-H460) was > 100 µM (inactive). For the same compound, the GI50 (NCI/ADR-RES) was > 100 µM (inactive), the GI50 (CAKI-1) was > 100 µM (inactive) and the GI50 (OVCAR-4) was > 100 µM (inactive). For the same compound, the GI50 (NCI-H226) was > 100 µM (inactive), the GI50 (A498) was > 100 µM (inactive) and the GI50 (SNB-19) was > 100 µM (inactive). The GI50 (SW-620) was > 100 µM (inactive), the GI50 (SK-MEL-5) was > 100 µM (inactive) and the GI50 (U-251) was > 100 µM (inactive). The GI50 (KM12) was > 100 µM (inactive), the GI50 (MOLT-4) was 63.2 µM (inactive) and the GI50 (Hs-578T) was > 100 µM (inactive). For the same compound, the GI50 (SN12C) was > 100 µM (inactive), the GI50 (M14) was > 100 µM (inactive) and the GI50 (SK-MEL-28) was > 100 µM (inactive). For the same compound, the GI50 (IGROV-1) was 33.1 µM (inactive), the GI50 (SK-MEL-2) was > 100 µM (inactive) and the GI50 (DU-145) was > 100 µM (inactive). The GI50 (HOP-62) was > 100 µM (inactive), the GI50 (K562) was 81.3 µM (inactive) and the GI50 (HCT-116) was > 100 µM (inactive). The GI50 (A549) was > 100 µM (inactive), the GI50 (CCRF-CEM) was > 100 µM (inactive) and the GI50 (SNB-75) was 22 µM (inactive). The GI50 (COLO 205) was > 100 µM (inactive), the GI50 (HT-29) was 77.6 µM (inactive) and the GI50 (RXF 393) was > 100 µM (inactive). The GI50 (HL-60) was > 100 µM (inactive), the GI50 (UACC-257) was > 100 µM (inactive) and the GI50 (Malme-3M) was > 100 µM (inactive). For the same compound, the GI50 (SF-295) was > 100 µM (inactive), the GI50 (PC-3) was > 100 µM (inactive) and the GI50 (UACC-62) was > 100 µM (inactive). For the same compound, the GI50 (NCI-H23) was > 100 µM (inactive).
